According to patent US10464896B2, “Efflux-pump inhibitors and therapeutic uses thereof” (Basilea Pharmaceutica International AG, priority 2015, dated 2019):

Columns and labels:
Type in all cases: cell-based
E. coli ATCC25922 [1] = assay: Antibacterial activity in combination with minocycline (growth inhibition); conditions: Escherichia coli, minocycline 0.25 μg/mL, OD625 23 h minus 1 h, read-out: residual growth of E. coli ATCC25922 (% of uninhibited control) with minocycline; for activity at 50 µM: ATCC25922, compound at 50 μM; for activity at 25 µM: ATCC25922, compound at 25 μM
How it was run: (§1)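 Test compound combined with fixed subinhibitory partner antibiotic: linezolid 128 μg/mL for either strain, minocycline 0.25 μg/mL (E. coli) or 8 μg/mL (P. aeruginosa), in caMHB shaken at 37 °C. Residual growth as % of inhibitor-free control, from OD625 at 23 h minus 1 h.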

P. aeruginosa PAO1 = assay: as above; conditions: Pseudomonas aeruginosa, PAO1, compound at 50 μM; minocycline 8 μg/mL; OD625 23 h minus 1 h; read-out: residual growth of P. aeruginosa PAO1 (% of uninhibited control) with minocycline
How it was run: as §1

E. coli ATCC25922 [2] = assay: Antibacterial activity in combination with linezolid (growth inhibition); conditions: Escherichia coli, ATCC25922, compound at 50 μM; linezolid 128 μg/mL; OD625 23 h minus 1 h; read-out: residual growth of E. coli ATCC25922 (% of uninhibited control) with linezolid
Description: Antibacterial activity in combination with minocycline or with linezolid
Inhibition of growth was measured with E. coli ATCC25922 and P. aeruginosa PAO1 in a 96-well plate format. Cation-adjusted Müller-Hinton broth (caMHB) was inoculated with an overnight culture and incubated at 37° C. on a shaker until OD625 reached 0.6 to 0.7. Density was adjusted to OD600=0.5 by addition of caMHB. 35 μL of the suspension were diluted to 35 mL with caMHB and supplemented with minocycline at the subinhibitory doses of 0.25 μg/mL for E. coli and 8 μg/mL for P. aeruginosa or with linezolid at the subinhibitory dose of 128 μg/mL for E. coli and P. aeruginosa. Each well contained 1 μL of test compound in 100 μL caMHB with minocycline or with linezolid.
Plates were incubated at 37° C. on a plate shaker. OD625 was measured at 1 h, 6 h, and at 23 h.
The difference between OD at 23 h and at 1 h was taken as measure for cell density and compared to controls without inhibitor (i.e. uninhibited control). Results were expressed as residual growth (% of uninhibited control). Enhancement of minocycline or linezolid activity caused reduced residual growth.

| Structure (SMILES) | activity at 50 µM (E. coli ATCC25922 [1]) | activity at 50 µM (P. aeruginosa PAO1) | activity at 25 µM (E. coli ATCC25922 [1]) | activity at 50 µM (E. coli ATCC25922 [2]) |
| --- | --- | --- | --- | --- |
| COc1cc(C#N)ccc1COc1cccc(CNCC2CNC2)c1 [Example 26] | ≤ 50% | ≤ 50% | – | – |
| Clc1ccc(COc2cccc(CCNCC3CNC3)c2)cc1 [Example 28] | – | ≤ 50% | ≤ 10% | – |
| Brc1ncccc1COc1cccc(CNCC2CNC2)c1 [Example 48] | – | – | – | ≤ 50% |
| CC(C)(c1ccccc1)c1ccc(OCCNCC2CNC2)cc1 [Example 50] | ≤ 50% | ≤ 50% | – | – |
| CC(C)(C)c1ccc(COc2ccc(CNCC3CCNCC3)cc2)cc1 [Example 57] | – | ≤ 50% | ≤ 10% | – |
| Clc1ccc(-c2cccc(CNCC3CCNC3)c2)c(Br)c1 (stereo not drawn) [Example 74] | – | ≤ 50% | ≤ 10% | – |
| N#Cc1ccc(COc2ccc(CNCC3CNC3)cc2)cc1 [Example 76] | – | – | – | ≤ 50% |
| CS(=O)(=O)c1ccc(COc2ccc(CNCC3CNC3)cc2)c(Cl)c1 [Example 78] | – | – | – | ≤ 50% |
| Clc1ccc(Oc2ccc(CNCC3CCNC3)cc2)c(Br)c1 (stereo not drawn) [Example 82] | – | ≤ 50% | ≤ 10% | – |
| COC(=O)c1ccc(COc2ccc(CNCC3CNC3)cc2)c(Br)c1 [Example 87] | ≤ 50% | ≤ 50% | – | – |
| Clc1ccc(Oc2ccccc2CNCC2CNC2)c(Br)c1 [Example 89] | ≤ 50% | ≤ 50% | – | – |
| O=C(O)c1cc(CNCC2CNC2)cc(OCc2ccc(Cl)cc2Br)c1 [Example 110] | – | – | – | ≤ 50% |
| COCc1cc(CNCC2CNC2)cc(OCc2ccc(Cl)cc2Br)c1 [Example 124] | – | ≤ 50% | ≤ 10% | – |
| FC(F)(F)c1cc(Cl)ccc1COc1cccc(CNCC2CNC2)c1 [Example 131] | – | ≤ 50% | ≤ 10% | – |
| O=C(CNCC1CCNC1)c1cccc(OCc2ccc(Cl)cc2Br)c1 (stereo not drawn) [Example 143] | – | – | – | ≤ 50% |
| O=C(Nc1ccc(CNCC2CCNC2)cc1Cl)c1ccc(C(F)(F)F)cc1C(F)(F)F (stereo not drawn) [Example 160] | – | – | – | ≤ 50% |
| O=C(Nc1ccc(CNCC2CNC2)cc1Cl)c1ccc(Cl)cc1C(F)(F)F [Example 161] | – | – | – | ≤ 50% |
| Clc1ccc(NCc2cccc(CNCC3CNC3)c2)c(Br)c1 [Example 170] | – | ≤ 50% | ≤ 10% | – |
| Clc1ccc(COCc2cccc(CNCC3CNC3)c2)c(Br)c1 [Example 173, N-(azetidin-3-ylmethyl)-1-[3-[(2-bromo-4-chloro-phenyl)methoxymethyl]phenyl]methanamine] | – | ≤ 50% | ≤ 10% | – |
| Clc1ccc(COc2cccc(CNCC3CNC3)c2)c(Cl)c1 [Example 177] | – | ≤ 50% | ≤ 10% | – |
| Ic1cccc(COc2cccc(CNCC3CNC3)c2)c1 [Example 219] | – | ≤ 50% | ≤ 10% | – |
| Ic1cccc(COc2cccc(CNCC3CCNC3)c2)c1 (stereo not drawn) [Example 221] | – | ≤ 50% | ≤ 10% | – |
| CC(C)(C)c1ccc(COc2cccc(CNCC3CNC3)c2)cc1 [Example 222] | – | ≤ 50% | ≤ 10% | – |
| CC(C)(C)c1ccc(COc2cccc(CNC3CCNCC3)c2)cc1 [Example 223] | – | ≤ 50% | ≤ 10% | – |
| C[N+](C)(CC(=O)O)Cc1cc(CNCC2CNC2)cc(OCc2ccc(Cl)cc2Br)c1 [Example 232] | – | – | – | ≤ 50% |

| Structure (SMILES) | activity at 50 µM (E. coli ATCC25922 [1]) | activity at 50 µM (P. aeruginosa PAO1) | activity at 25 µM (E. coli ATCC25922 [1]) | activity at 50 µM (E. coli ATCC25922 [2]) |
| --- | --- | --- | --- | --- |
| CN(CC(=O)O)Cc1cc(CNCC2CNC2)cc(OCc2ccc(Cl)cc2Br)c1 [Example 244] | – | – | – | ≤ 50% |
| C=CCOc1cc(/C=C/c2cccc(OC)c2)cc(CNCC2CNC2)c1 [Example 276] | – | ≤ 50% | ≤ 10% | – |
| CC(C)(C)c1ccc(COc2cc(CNCC3CNC3)cc(OCCN3CCOCC3)c2)cc1 [Example 277] | – | ≤ 50% | ≤ 10% | – |
| C=CCOc1cc(/C=C/c2ccccc2OC)cc(CNCC2CNC2)c1 [Example 285] | – | ≤ 50% | ≤ 10% | – |
| C[N+]1(C)CC(OCc2cc(CNCC3CNC3)cc(OCc3ccc(Cl)cc3Br)c2)CC1C(=O)O (stereo not drawn) [Example 288] | ≤ 50% | ≤ 50% | – | – |
| N#Cc1ccc(/C=C/c2cccc(CNCC3CCNC3)c2)c(C(F)(F)F)c1 (stereo not drawn) [Example 314] | – | ≤ 50% | ≤ 10% | – |
| C=CCOc1cc(/C=C/c2cnccc2C#N)cc(CNCC2CCNC2)c1 (stereo not drawn) [Example 316] | – | ≤ 50% | ≤ 10% | – |
| C=CCOc1cc(/C=C/c2cccs2)cc(CNCC2CCNC2)c1 (stereo not drawn) [Example 319] | – | ≤ 50% | ≤ 10% | – |
| C=CCOc1cc(/C=C/c2ccsc2)cc(CNCC2CCNC2)c1 (stereo not drawn) [Example 320] | – | ≤ 50% | ≤ 10% | – |
| C=CCOc1cc(/C=C/c2ccc(OC)cc2OC)cc(CNCC2CNC2)c1 [Example 323] | – | ≤ 50% | ≤ 10% | – |
| CC(C)COc1cc(/C=C/c2cccc(C(N)=O)c2)cc(CNCC2CCNC2)c1 (stereo not drawn) [Example 331] | – | ≤ 50% | ≤ 10% | – |
| C=CCOc1cc(/C=C/c2nc(C(C)C)cs2)cc(CNCC2CCNC2)c1 (stereo not drawn) [Example 353] | – | ≤ 50% | ≤ 10% | – |
| C=CCOc1cc(/C=C/c2ccc(Cl)cc2Br)cc(CNC(=O)[C@H]2CCNC2)c1 [Example 366] | – | ≤ 50% | ≤ 10% | – |
| c1cncc(COc2cc(CNCC3CCNC3)cc(OCCc3ccncc3)c2)c1 (stereo not drawn) [Example 427] | – | – | – | ≤ 50% |
| c1cncc(COc2cc(CNCC3CNC3)cc(OCCN3CCOCC3)c2)c1 [Example 428] | – | – | – | ≤ 50% |
| C(=C\c1cc(CNCC2CNC2)cc(OCCN2CCOCC2)c1)/c1cccnc1 [Example 442] | – | – | – | ≤ 50% |
| C=CCOc1cc(/C=C/c2ccc(Cl)cc2Br)cc(C(=O)NCC(=O)NCC2CNC2)c1 [Example 445] | – | ≤ 50% | ≤ 10% | – |
| C=CCOc1cc(/C=C/c2cncc(C(=O)O)c2)cc(CNCC2CCNC2)c1 (stereo not drawn) [Example 449] | – | – | – | ≤ 50% |
| C=CCOc1cc(/C=C/c2ccc(N)cc2)nc(CNCC2CCNC2)c1 (stereo not drawn) [Example 475] | ≤ 50% | ≤ 50% | – | – |
| N#Cc1cncc(/C=C/c2cc(O)cc(CNCC3CCNC3)c2)c1 (stereo not drawn) [Example 480, 5-[(E)-2-[3-hydroxy-5-[(pyrrolidin-3-ylmethylamino)methyl]phenyl]vinyl]pyridine-3-carbonitrile] | – | ≤ 50% | – | – |
| N#Cc1cncc(/C=C/c2cc(OCc3ccccn3)cc(CNCC3CCNC3)n2)c1 (stereo not drawn) [Example 482] | – | – | – | ≤ 50% |
| N#Cc1cncc(/C=C/c2cc(CNCC3CCNC3)cc(OCCN3CCOCC3)c2)c1 (stereo not drawn) [Example 484, 5-[(E)-2-[3-(2-morpholinoethoxy)-5-[(pyrrolidin-3-ylmethylamino)methyl]phenyl]vinyl]pyridine-3-carbonitrile] | – | – | – | ≤ 50% |
| N#Cc1cncc(/C=C/c2cc(CNCC3CCNC3)cc(OCc3n[nH]c(=O)o3)c2)c1 (stereo not drawn) [Example 491, 5-[(E)-2-[3-[(2-oxo-3H-1,3,4-oxadiazol-5-yl)methoxy]-5-[(pyrrolidin-3-ylmethylamino)methyl]phenyl]vinyl]pyridine-3-carbonitrile] | – | – | – | ≤ 50% |
| N#Cc1cncc(/C=C/c2cc(CNCC3CCNC3)cc(OCCc3ccncc3)c2)c1 (stereo not drawn) [Example 496] | – | ≤ 50% | – | – |
| O=C(NCc1cc(CNCC2CNC2)cc(OCCc2ccncc2)c1)c1cccnc1 [Example 510] | – | ≤ 50% | – | – |
